Source: patent publication US20090018210A1, “A Method for Promoting Fat Degradation” (YAMAHA HATSUDOKI KABUSHIKI KAISHA, priority 2007, published 2009)

Tested on: Human subcutaneous adipocytes
Assay: Promotion of fat degradation (lipolysis) in human adipocytes, free glycerol in culture supernatant
Type: cell-based
Settings: 30 μM test substance, 3 hours incubation at 37° C., versus 1% (v/v) DMSO control; Lipolysis Assay Kit; FIG. 1
Procedure: Human subcutaneous adipocytes (Zen-Bio, Inc.) plated onto a 96-well plate was obtained and pre-cultivated under a 5% CO2 atmosphere at 37° C. for 5 days in D-MEM/Ham's F12 Medium (1:1, v/v) containing 3% (v/v) fetal bovine serum, 15 mM HEPES (pH 7.4), 33 μM biotin, 17 μM pantothenate, 100 nM human insulin, 1 μM dexamethasone, 100 U/mL penicillin, 100 μg/mL streptomycin and 0.25 μg/mL amphotericin B. Then, an astaxanthin free form (Wako Pure Chemical Industries, Ltd.: purity 94% or more) and the astaxanthin monoester obtained in Preparation Example 1 were dissolved in dimethyl sulfoxide (DMSO) to prepare stock solutions at a concentration of 3 mM, respectively. The stock solutions were diluted to 30 μM with LIP-2 Assay Buffer (Zen-Bio, Inc.) to prepare test solutions. As a control, 1% (v/v) DMSO solution which was diluted with LIP-2 Assay Buffer was used. Each of the wells was washed with Wash Buffer (Zen-Bio, Inc.) and the test solutions were added to the wells. These wells were incubated under a 5% CO2 atmosphere at 37° C. for 3 hours. After the incubation, the amount of free glycerol in the culture supernatant was measured using a Lipolysis Assay Kit (Zen-Bio, Inc.). […]

Compound | percentage of fat degradation promoted, (A/B)×100(%), amount of free glycerol relative to control
CC1=C(/C=C/C(C)=C/C=C/C(C)=C/C=C/C=C(C)/C=C/C=C(C)/C=C/C2=C(C)C(=O)[C@@H](O)CC2(C)C)C(C)(C)C[C@H](O)C1=O [astaxanthin] | significantly increased
astaxanthin monoester | significantly increased
